Measured values published in patent US6214859A, “Ethylamine derivatives” (Fujimoto Brothers Co., Ltd., priority 1997, dated 2001).
Structures can show the parent of a compound that is named as a salt.

Experiments:
human platelet MAO-B = target: T1, human platelet MAO-B (Homo sapiens, UniProt P27338); assay: biochemical; conditions: 10^-5 M; read-out: Inhibition rate of MAO-B
T1 construct: The suspension was used as enzyme for MAO activity assay in blood platelets; from tissue; host or cells: human blood platelets (frozen, thawed and sonicated platelet rich plasma)
T1 sequence (P27338 1-520): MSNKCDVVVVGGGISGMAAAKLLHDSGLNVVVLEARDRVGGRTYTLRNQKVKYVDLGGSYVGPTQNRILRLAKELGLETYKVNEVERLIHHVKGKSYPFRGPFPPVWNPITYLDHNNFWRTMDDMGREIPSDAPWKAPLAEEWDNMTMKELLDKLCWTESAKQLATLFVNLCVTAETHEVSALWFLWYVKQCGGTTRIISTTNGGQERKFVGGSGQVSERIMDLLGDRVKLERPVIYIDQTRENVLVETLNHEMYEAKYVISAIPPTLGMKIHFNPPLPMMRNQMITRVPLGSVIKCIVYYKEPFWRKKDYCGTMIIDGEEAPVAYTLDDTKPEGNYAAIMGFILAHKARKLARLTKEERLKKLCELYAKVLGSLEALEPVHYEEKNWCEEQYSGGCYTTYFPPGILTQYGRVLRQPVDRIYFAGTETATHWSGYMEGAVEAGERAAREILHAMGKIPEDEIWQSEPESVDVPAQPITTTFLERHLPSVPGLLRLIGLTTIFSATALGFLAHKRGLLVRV
Experimental: Human blood added with 3.8% citric acid was centrifuged at 950 rpm for 10 min and platelet rich plasma (PRP) was obtained. The residual blood cell was centrifuged at 3,000 rpm for 10 min and platelet poor plasma (PPP) was obtained. After blood platelets were measured from a part of PRP, PRP and PPP were frozen at -20° C. They were thawed and were sonicated to be dispersed and suspended when MAO activity was measured. The suspension was used as enzyme for MAO activity assay in blood platelets. In addition, almost all of MAO in blood platelets have been known to be B type.
MAO-B activity was determined according to the method described in Biochem. Pharmacol., 14, 1684-1685 (1965). […] The mixture was incubated at 37° C. for 5 min. After 80 μl of PRP or PPP was added to it, the mixture was incubated at 37° C. for 20 min. Thereafter, 120 μl of substrate (0.33 mg/ml kynuramine dihydrobromide) was added thereto. After incubation at 37° C. for 30 min, 800 μl of 10% trichloroacetic acid were added to stop the reaction and the solution was centrifuged at 3,000 rpm for 10 min. To 1 ml of the supernatant, 2 ml of 1 N NaOH was added and fluorescence of the solution was measured at Ex 312 nm and Em 380 nm. PRP was prepared to 250,000 cell/μl as amounts of blood platelets with […] phosphate buffer solution and 4-hydroxyquinoline was used as standard for measurement.

[1] = tested on: dopamine release, substantia nigra; assay: Release of biogenic amines from brain tissue: dopamine, substantia nigra; assay type: in vivo, Wistar rats
Experimental: (§1) The method described in Life Sci., 56, 611-620 (1995) was used. After Wistar rats were decapitated, appropriate brain samples, which were striatun, substantia nigra, tuberculum olfactorium, locus coeruleus and raphe, were removed quickly and soaked in oxygenated (95% O2 and 5% CO2) Krebs solution at 37° C. The composition of Krebs solution was as follows in […]: NaCl 111, KCl 4.7, CaCl2 2.5, MgSO4 1.64, NaHCO3 25, KH2 PO4 1.2, glucose 11, 50 mg/l ascorbic add and 20 mg/l EDTA-2 Na. The preparations, soaked in one organ bath, were as follows: 1) four pieces of striatum (each halved), 2) four pieces of substantia nigra, 3) four pieces of tuberculum olfactorium; 4) eight pieces of locus coeruleus; 5) eight pieces of raphe. After incubation of the appropriate tissue for 20 min, the Krebs solution was replaced, the tissue soaked for 20 min in Krebs solution dissolving the compounds of this invention and the amount of biogenic amine released during this period of time was estimate. The compounds of this invention and PPAP, control compound, were dissolved in saline and were administered subcutaneously before 30 min to removing brain sample. For measuring noradrenaline and dopamine, samples were purified on 60 mg alumina containing micro columns (BDH Chemicals Ltd.) according to the method described in J. Pharmacol. Exp. Ther., 138, 360-372 (1962) For measuring serotonin, samples were purified on 15 mg Sephadex G-10 micro columns (Pharmacia). Dopamine, noradrenaline and serotonin were determined by high performance liquid chromatography (Waters 746 data module) with electrochemical detection (Waters 460 electrochemical detector). Waters Resolve 5μ Spherical C18 3.9×150 mm column was used as separating column and triethylamine-phosphate buffer (pH 5.2), containing 200 mg/l octane sulfonate sodium and 18 mg/l EDTA-2 Na with 6% acetonitrile, was used as mobile phase. The release amount of appropriate amine was noted as nmol/g tissue released for 20 min. deference of means tested by Student's t-test and significant level was set at P<.05.

[2] = tested on: noradrenaline release, locus coeruleus; assay: Release of biogenic amines from brain tissue: noradrenaline, locus coeruleus; assay type: in vivo, Wistar rats
Experimental: as §1

[3] = tested on: dopamine release, tuberculum olfactorium; assay: Release of biogenic amines from brain tissue: dopamine, tuberculum olfactorium; assay type: in vivo, Wistar rats
Experimental: as §1

serotonin release, raphe = assay: Release of biogenic amines from brain tissue: serotonin, raphe; assay type: in vivo, Wistar rats
Experimental: as §1

[4] = tested on: dopamine release, striatum; assay: Release of biogenic amines from brain tissue: dopamine, striatum; assay type: in vivo, Wistar rats
Experimental: as §1

[5] = Toxicity screening using primary cultured hepatocyte (LDH release); assay type: cell-based, rat; conditions: rat, primary hepatocytes, 24 hr, control 0.5% saline or 0.5% DMSO, read-out: Percent control of LDH release
Experimental: The hepatocytes was prepared from rat liver by collagenase perfusion method and suspension containing 5×10^5 cells/ml were prepared. After cultivation for 24 hr, the suspension was exchanged to the William's Medium E (GIBCO BRL) containing 10 or 100 μM of the compounds of this invention. After cultivation for 24 hr, the activity of lactate dehydrogenase (LDH) released in the medium was measured.

[6] = tested on: rats reduced learning ability by tetrabenazine; assay: Conditioned avoidance task in the shuttle box (tetrabenazine-treated rats); assay type: in vivo, rat; conditions: tetrabenazine 1 mg/kg s.c., significance and direction
Experimental: The method described in Life Sci., 58, 817-827 (1996) was used. The effects on conditioned avoidance reflex (CARs) was analyzed in the shuttle box using male and female rats (weighing 200-220 g) whose leaning abilities were reduced by treatment of tetrabenazine. The instrument was constructed, according to the device described in Psychopharmacologia 10, 1-5 (1966) by the Research Institute for Electrical Industry (Budapest, Hungary). The male and female rats (weighing 200-220 g) were trained to cross the berrier under the influence of a conditioned stimulus (CS) (light flash and buzzer sounds). […] And the performance which was not related to this condition was noted as an intersignal reaction (IR). The rats were trained with 100 trials per day for 5 days. One trial consisted of 15 sec intertrial interval. The saline solution of tetrabenazine was administered at a dose of 1 mg/kg subcutaneously before one hour prior to the test and then the solution of the compounds of this invention were administered at the doses of 1, 2, 2.5 and 5 mg/kg subcutaneously with the simultaneous administration of tetrabenazine. The nmbers of CARs, EFs and IRs were automatically counted and evaluated by multi-way analysis of variance (ANOVA).

Compound: CCCNC(CC)Cc1ccc2ccccc2c1 (stereo not shown) [Compound No. 10]
- inhibition at 10 µM (human platelet MAO-B): 37.2%
- Release of dopamine, substantia nigra ([1]; 1.00 mg/kg s.c.): 6.2 ± 0.31 nmol/g tissue, for 20 min
- Release of noradrenaline, locus coeruleus ([2]; 1.00 mg/kg s.c.): 2.9 ± 0.15 nmol/g tissue, for 20 min
- Release of dopamine, tuberculum olfactorium ([3]; 1.00 mg/kg s.c.): 5.6 ± 0.35 nmol/g tissue, for 20 min
- Release of serotonin, raphe (serotonin release, raphe; 1.00 mg/kg s.c.): 0.603 ± 0.10 nmol/g tissue, for 20 min
- Release of dopamine, striatum ([4]; 1.00 mg/kg s.c.): 3.3 ± 0.22 nmol/g tissue, for 20 min

Compound: CCCC(Cc1ccc2ccccc2c1)NCC(C)(C)C (stereo not shown) [Compound No. 14]
- activity at 24 h, 10 µM [5]: 108 ± 4.18%
- activity at 24 h, 100 µM [5]: 131 ± 7.08%

Compound: CCCNC(CCC)Cc1ccc2cc(OC)ccc2c1 (stereo not shown) [Compound No. 15]
- Condition Avoidance Reflex (CARs) ([6]; 5 mg/kg s.c.): * .Arrow-up bold.

Compound: CCCNC(CCC)Cc1cc2ccccc2[nH]1 (stereo not shown) [Compound No. 19, 1-(Indol-2-yl)-2-propylaminopentane Hydrochloride]
- activity at 24 h, 10 µM [5]: 82.4 ± 8.34%
- activity at 24 h, 100 µM [5]: 180 ± 5.54%

Compound: CCCCNC(CCC)Cc1ccc2c(c1)OCO2.Cl (stereo not shown) [Compound No. 29, 1-(1,3-Benzodioxol-5-yl)-2-butylaminopentane Hydrochloride]
- activity at 24 h, 10 µM [5]: 103 ± 6.02%
- activity at 24 h, 100 µM [5]: 101 ± 2.94%
- Condition Avoidance Reflex (CARs) ([6]; 2.5 mg/kg s.c.): * .Arrow-up bold.
- Condition Avoidance Reflex (CARs) ([6]; 5 mg/kg s.c.): *** .Arrow-up bold.
- Intersignal Reactions (IRs) ([6]; 5 mg/kg s.c.): *** .dwnarw.

Compound: CCCC(Cc1ccc2c(c1)OCO2)NC(C)CC (stereo not shown) [Compound No. 30]
- activity at 24 h, 10 µM [5]: 99.5 ± 5.44%
- activity at 24 h, 100 µM [5]: 138 ± 4.57%
- Condition Avoidance Reflex (CARs) ([6]; 5 mg/kg s.c.): **** .Arrow-up bold.
- Intersignal Reactions (IRs) ([6]; 5 mg/kg s.c.): * .dwnarw.

Compound: CCCC(Cc1ccc2c(c1)OCO2)NC(CC)CC (stereo not shown) [Compound No. 31]
- activity at 24 h, 10 µM [5]: 102.5 ± 0.84%
- activity at 24 h, 100 µM [5]: 153 ± 4.35%

Compound: CCCC(Cc1ccc2c(c1)OCO2)Nc1ccc(C)cc1.Cl (stereo not shown) [Compound No. 33, 1-(1,3-Benzodioxol-5-yl)-2-p-toluidinopentane Hydrochloride]
- activity at 24 h, 10 µM [5]: 94 ± 4.16%
- activity at 24 h, 100 µM [5]: 152 ± 5.71%
- Condition Avoidance Reflex (CARs) ([6]; 5 mg/kg s.c.): * .Arrow-up bold.
- Intersignal Reactions (IRs) ([6]; 5 mg/kg s.c.): * .dwnarw.

Compound: CCCNC(CCC)Cc1ccc2c(c1)OCCO2 (stereo not shown) [Compound No. 35, 1-(1,4-Benzodioxan-6-yl)-2-propylaminopentane Hydrochloride]
- activity at 24 h, 10 µM [5]: 103 ± 10.6%
- activity at 24 h, 100 µM [5]: 147 ± 5.07%

Compound: CCCNC(CCC)Cc1ccc2c(c1)CCO2 (stereo not shown) [Compound No. 36, 1-(2,3-Dihydrobenzofuran-5-yl)-2-propylaminopentane Hydrochloride]
- activity at 24 h, 10 µM [5]: 101 ± 2.24%
- activity at 24 h, 100 µM [5]: 111 ± 6.58%

Compound: CCCNC(CCC)Cc1ccc2c(c1)CCC2.Cl (stereo not shown) [Compound No. 37, 1-(Indan-5-yl)-2-propylaminopentane Hydrochloride]
- activity at 24 h, 10 µM [5]: 83.8 ± 5.65%
- activity at 24 h, 100 µM [5]: 193 ± 8.51%
- Condition Avoidance Reflex (CARs) ([6]; 5 mg/kg s.c.): * .Arrow-up bold.

Compound: CCCNC(CCC)Cc1ccc2cc[nH]c2c1.Cl (stereo not shown) [compound 22, 1-(Indol-6-yl)-2-propylaminopentane Hydrochloride]
- Release of dopamine, substantia nigra ([1]; 0.01 mg/kg s.c.): 11.9 ± 0.39 nmol/g tissue, for 20 min
- Release of noradrenaline, locus coeruleus ([2]; 0.01 mg/kg s.c.): 4.8 ± 0.05 nmol/g tissue, for 20 min
- Release of dopamine, tuberculum olfactorium ([3]; 0.01 mg/kg s.c.): 9.7 ± 0.17 nmol/g tissue, for 20 min
- Release of serotonin, raphe (serotonin release, raphe; 0.01 mg/kg s.c.): 0.322 ± 0.01 nmol/g tissue, for 20 min
- Condition Avoidance Reflex (CARs) ([6]; 0.5 mg/kg s.c.): * .Arrow-up bold.
- Condition Avoidance Reflex (CARs) ([6]; 1 mg/kg s.c.): *** .Arrow-up bold.
- Condition Avoidance Reflex (CARs) ([6]; 5 mg/kg s.c.): **** .Arrow-up bold.
- Escape Failures (EFs) ([6]; 5 mg/kg s.c.): * .dwnarw.
- Release of dopamine, striatum ([4]; 0.01 mg/kg s.c.): 6.5 ± 0.06 nmol/g tissue, for 20 min

Compound: CCCNC(CCC)Cc1cc2ccccc2s1.Cl (stereo not shown) [compound 38, 1-(2-Benzothienyl)-2-propylaminopentane Hydrochloride]
- Release of dopamine, substantia nigra ([1]; 0.01 mg/kg s.c.): 14.0 ± 0.23 nmol/g tissue, for 20 min
- Release of noradrenaline, locus coeruleus ([2]; 0.01 mg/kg s.c.): 3.6 ± 0.05 nmol/g tissue, for 20 min
- Release of dopamine, tuberculum olfactorium ([3]; 0.01 mg/kg s.c.): 11.5 ± 0.14 nmol/g tissue, for 20 min
- Release of serotonin, raphe (serotonin release, raphe; 0.01 mg/kg s.c.): 0.375 ± 0.02 nmol/g tissue, for 20 min
- Escape Failures (EFs) ([6]; 1 mg/kg s.c.): **** .dwnarw.
- Condition Avoidance Reflex (CARs) ([6]; 2.5 mg/kg s.c.): **** .Arrow-up bold.
- Intersignal Reactions (IRs) ([6]; 2.5 mg/kg s.c.): * .Arrow-up bold.
- Release of dopamine, striatum ([4]; 0.01 mg/kg s.c.): 7.9 ± 0.19 nmol/g tissue, for 20 min

Compound: CCCNC(CCC)Cc1csc2ccccc12.Cl (stereo not shown) [compound 39, 1-(3-Benzothienyl)-2-propylaminopentane Hydrochloride]
- Release of dopamine, substantia nigra ([1]; 0.01 mg/kg s.c.): 12.0 ± 0.34 nmol/g tissue, for 20 min
- Release of noradrenaline, locus coeruleus ([2]; 0.01 mg/kg s.c.): 4.1 ± 0.15 nmol/g tissue, for 20 min
- Release of dopamine, tuberculum olfactorium ([3]; 0.01 mg/kg s.c.): 10.9 ± 0.25 nmol/g tissue, for 20 min
- Release of serotonin, raphe (serotonin release, raphe; 0.01 mg/kg s.c.): 0.256 ± 0.01 nmol/g tissue, for 20 min
- Escape Failures (EFs) ([6]; 1 mg/kg s.c.): *** .dwnarw.
- Condition Avoidance Reflex (CARs) ([6]; 2.5 mg/kg s.c.): **** .Arrow-up bold.
- Escape Failures (EFs) ([6]; 2.5 mg/kg s.c.): **** .dwnarw.
- Release of dopamine, striatum ([4]; 0.01 mg/kg s.c.): 7.1 ± 0.15 nmol/g tissue, for 20 min
